Measured values as given in article PMC11550483 (2024).

Target: SARS2 M^pro (Severe acute respiratory syndrome coronavirus 2, UniProt P0DTD1, P3395H)
Assay type: biochemical, SARS-CoV-2

Row | Structure (SMILES) | % inhibition (20 µM) biochemical
1 | O=C1/C(=C/c2cccnc2)SC(=S)N1Cc1cccnc1 [MWAC-0001816, O=C1N(Cc2cccnc2)C(=S)S/C/1=C\c3cccnc3] | 43%
2 | C=CCN1C(=O)C(O)(CC(=O)c2ccc(Cl)s2)c2cc(Br)ccc21 (stereo not drawn) [MWAC-0001788, OC1(CC(=O)c2ccc(Cl)s2)C(=O)N(CC=C)c3ccc(Br)cc13] | 7.53%
3 | CCc1c(C)sc(NC(=O)CCc2ccccc2)c1C(N)=O [MWAC-0001812, CCc1c(C)sc(NC(=O)CCc2ccccc2)c1C(=O)N] | 4%
4 | O=C(c1cccnc1)N1CCN(c2ccc(Cl)c(Cl)c2)CC1 [MWAC-0001776, Clc1ccc(cc1Cl)N2CCN(CC2)C(=O)c3cccnc3] | 47%
5 | COC(=O)c1c(NC(=O)CCl)sc(C(=O)N2CCOCC2)c1C [MWAC-0001850, COC(=O)c1c(C)c(sc1NC(=O)CCl)C(=O)N2CCOCC2] | 74%
6 | O=C(NNC(=O)C(c1ccccc1)c1ccccc1)Nc1cccc(Cl)c1 [MWAC-0001779, Clc1cccc(NC(=O)NNC(=O)C(c2ccccc2)c3ccccc3)c1] | 3%
7 | Nc1ncnc(N)c1N=Nc1ccccc1 [MWAC-0001835, Nc1ncnc(N)c1N=Nc2ccccc2] | 6.65%
8 | COc1ccc(C(CNC(=O)CCl)N2CCCCC2)cc1 (stereo not drawn) [MWAC-0001849, COc1ccc(cc1)C(CNC(=O)CCl)N2CCCCC2] | 33%
9 | Cc1cc(C(=O)COn2nnc3ccccc32)c(C)n1-c1ccc2c(c1)OCO2 [MWAC-0001845, Cc1cc(C(=O)COn2nnc3ccccc23)c(C)n1c4ccc5OCOc5c4] | 20%
